Columns and labels:
Test in all cases: relative viability (nuclei count vs DMSO), 5 days (fraction); higher = more cells survive
TPCA-1 + Lapatinib = compound: C1=CC(=CC=C1C2=CC(=C(S2)NC(=O)N)C(=O)N)F [TPCA-1] + CS(=O)(=O)CCNCc1ccc(-c2ccc3ncnc(Nc4ccc(OCc5cccc(F)c5)c(Cl)c4)c3c2)o1 [Lapatinib] (partner 2 µM)
How it was run: (§1)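 Relative viability equals treated-well nuclei counts divided by vehicle-well nuclei counts. Counts came from 4× images of lung cancer cell lines grown in 1536-well plates for 5 days after pin-tool dosing on the day after seeding. Dosing used one drug alone or a fixed anchor-drug dose plus five library-drug doses (not always all listed) in √10 steps, and values are medians of duplicate plates.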

TPCA-1 + Crizotinib = compound: C1=CC(=CC=C1C2=CC(=C(S2)NC(=O)N)C(=O)N)F [TPCA-1] + C[C@@H](Oc1cc(-c2cnn(C3CCNCC3)c2)cnc1N)c1c(Cl)ccc(F)c1Cl [Crizotinib] (partner 1 µM)
How it was run: as §1

Lestaurtinib + Dasatinib = compound: C[C@]12O[C@H](C[C@]1(O)CO)n1c3ccccc3c3c4c(c5c6ccccc6n2c5c31)CNC4=O [Lestaurtinib] + Cc1nc(Nc2ncc(C(=O)Nc3c(C)cccc3Cl)s2)cc(N2CCN(CCO)CC2)n1 [Dasatinib] (partner 0.075 µM)
How it was run: as §1

Row | Cell Line | relative viability (TPCA-1 + Lapatinib; first compound 0.04 µM) | relative viability (TPCA-1 + Lapatinib; first compound 0.1265 µM) | relative viability (TPCA-1 + Lapatinib; first compound 0.4 µM) | relative viability (TPCA-1 + Lapatinib; first compound 1.265 µM) | relative viability (TPCA-1 + Lapatinib; first compound 4 µM) | relative viability (TPCA-1 + Crizotinib; first compound 0.04 µM) | relative viability (TPCA-1 + Crizotinib; first compound 0.1265 µM) | relative viability (TPCA-1 + Crizotinib; first compound 0.4 µM) | relative viability (TPCA-1 + Crizotinib; first compound 1.265 µM) | relative viability (TPCA-1 + Crizotinib; first compound 4 µM) | relative viability (Lestaurtinib + Dasatinib; first compound 0.005 µM) | relative viability (Lestaurtinib + Dasatinib; first compound 0.01581 µM) | relative viability (Lestaurtinib + Dasatinib; first compound 0.05 µM) | relative viability (Lestaurtinib + Dasatinib; first compound 0.1581 µM) | relative viability (Lestaurtinib + Dasatinib; first compound 0.5 µM)
1 | EMC-BAC-2 | 0.993 | 0.854 | 0.895 | 0.752 | 0.756 | 0.737 | 0.836 | 0.788 | 0.755 | 0.663 | 0.291 | 0.2 | 0.255 | 0.25 | 0.19
2 | NCI-H520 | 0.905 | 0.752 | 0.879 | 0.756 | 0.168 | 0.882 | 0.737 | 0.795 | 0.566 | 0.544 | 0.209 | 0.203 | 0.164 | 0.169 | 0.159
3 | NCI-H1755 | 0.991 | 0.984 | 1.02 | 0.898 | 0.689 | 0.83 | 0.772 | 0.922 | 0.831 | 0.48 | 0.439 | 0.424 | 0.293 | 0.288 | 0.208
4 | NCI-H1993 | 0.855 | – | 0.735 | 0.765 | 1.11 | 0.868 | – | 1.02 | 0.851 | 0.849 | 0.565 | 0.32 | 0.504 | 0.495 | 0.468
5 | NCI-H23 | 1.06 | 0.96 | 1.05 | 1 | 0.349 | 0.582 | 0.503 | 0.515 | 0.441 | 0.341 | 0.856 | 0.911 | 0.739 | 0.847 | 0.483
6 | SW 900 | – | – | – | – | – | – | – | – | – | – | 0.739 | 0.702 | 0.445 | 0.57 | 0.32
7 | NCI-H1437 | 0.888 | 0.764 | 0.85 | 0.742 | 0.604 | 0.941 | 0.892 | 0.892 | 0.872 | 0.834 | 0.442 | 0.475 | 0.331 | 0.382 | 0.265
8 | SK-MES-1 | 0.479 | 0.402 | 0.429 | 0.471 | 0.34 | 1 | 0.907 | 0.923 | 0.948 | 0.589 | 0.396 | 0.333 | 0.426 | 0.206 | 0.159
9 | NCI-H2405 | 1.19 | 0.915 | 1.1 | – | 0.949 | 0.908 | 0.773 | 0.797 | 0.547 | 0.905 | 0.199 | 0.211 | 0.186 | 0.196 | 0.17
10 | NCI-H2023 | 1.1 | 0.78 | 1.14 | 0.528 | 0.133 | 0.75 | 0.667 | 0.658 | 0.636 | 0.512 | 0.674 | 0.586 | 0.422 | 0.473 | 0.159
11 | NCI-H838 | 1.14 | 0.864 | 1.12 | 0.598 | 0.565 | 0.837 | 0.752 | 0.806 | 0.698 | 0.471 | 0.281 | 0.296 | 0.264 | 0.286 | 0.216
12 | NCI-H1299 | 0.962 | 0.979 | 0.95 | 0.963 | 0.949 | 0.95 | 0.943 | 0.907 | 0.972 | 0.948 | – | – | – | – | –
13 | NCI-H1563 | 1.08 | 0.943 | 0.919 | 0.736 | 0.795 | 0.945 | 0.954 | 0.89 | 0.953 | 0.811 | 0.487 | 0.447 | 0.499 | 0.409 | 0.362
14 | NCI-H661 | 0.632 | 0.448 | 0.562 | 0.522 | 0.387 | 0.968 | 0.889 | 1.05 | 0.988 | 0.825 | 0.99 | 0.953 | 0.851 | 0.81 | 0.319
15 | NCI-H1734 | 1.21 | 0.946 | 1.13 | 1.02 | 0.623 | 0.706 | 0.584 | 0.704 | 0.642 | 0.575 | 0.48 | 0.518 | 0.42 | 0.263 | 0.143
16 | NCI-H1650 | 0.945 | 0.713 | 0.921 | 0.791 | 0.219 | 1.18 | 0.92 | 1.04 | 1.09 | 0.891 | 0.263 | 0.345 | 0.391 | 0.387 | 0.144
17 | Calu-6 | 1.15 | 1.04 | 1.01 | 0.956 | 0.91 | 0.861 | 0.789 | 0.767 | 0.669 | 0.373 | – | – | – | – | –
18 | NCI-H1395 | 1.09 | 1.06 | 1.02 | 0.935 | 0.75 | – | – | – | – | – | 0.423 | 0.402 | 0.398 | 0.373 | 0.363
19 | NCI-H1703 | 1.07 | 0.902 | 1.18 | 0.805 | 0.988 | 0.585 | 0.57 | 0.594 | 0.396 | 0.459 | – | – | – | – | –
20 | EBC-1 | 0.201 | 0.233 | 0.196 | 0.224 | 0.248 | 0.206 | 0.175 | 0.201 | 0.195 | 0.222 | – | – | – | – | –
21 | NCI-H2342 | – | – | – | – | – | – | – | – | – | – | 0.328 | 0.314 | 0.264 | 0.313 | 0.259
22 | ChaGo-K-1 | – | – | – | – | – | 1.2 | 1.04 | 1.17 | 0.836 | 0.608 | 0.654 | 0.601 | 0.552 | 0.547 | 0.292
23 | HCC-44 | 0.974 | 0.961 | 1 | 0.913 | 0.904 | 0.798 | 0.708 | 0.76 | 0.681 | 0.644 | – | – | – | – | –
24 | NCI-H522 | – | – | – | – | – | – | – | – | – | – | 0.798 | 0.807 | 0.934 | 0.821 | 0.493
25 | A549 | 1.03 | 0.922 | 1.1 | 0.959 | 0.969 | 0.898 | 0.748 | 0.773 | 0.522 | 0.331 | – | – | – | – | –
26 | NCI-H441 | – | – | – | – | – | 0.894 | 0.646 | 0.618 | 0.452 | 0.379 | 0.521 | 0.58 | 0.431 | 0.548 | 0.482
27 | LCLC-103H | – | – | – | – | – | 1.12 | 1.03 | 0.96 | 1.03 | 1.03 | 0.474 | 0.464 | 0.405 | 0.325 | 0.224

Reference: the supplement of paper PMC10307832
